# Source: patent publication US20100173832A1, “ANTICANCEROUS POLYMERIC AGENTS” (TECHNION RESEARCH & DEVELOPMENT FOUNDATION LTD., priority 2007, published 2010)
# Read-outs that look alike come from different tables or passages of the source. Non-standard residues stand in square brackets, D forms with d. Residues, ends and D or L forms follow the SMILES beside them. *: point of attachment. Lauroyl = CCCCCCCCCCCC(=O)*; 12Ado = NCCCCCCCCCCCC(=O)O; Octanoyl = CCCCCCCC(=O)*
# Assays:
# in vitro = details: human
# Experimental: The polymer's toxic potential was determined against human red blood cells (RBC) by measuring leakage of hemoglobin therefrom in phosphate buffer solution (PBS). Human blood samples were rinsed three times in PBS by centrifugation for 2 minutes at 200×g, and re-suspended in PBS at 5% hematocrit. A 50 μl-fractions of a suspension containing […] RBC were added to test tubes containing 200 μl of polymer solutions (2-fold serial dilutions in PBS), PBS alone (for base-line values), or distilled water (for 100% hemolysis). […] Controls for base-line hemolysis (blank) and 100% hemolysis consisted of RBC suspended in PBS and TritonX100 (0.2%), respectively.
# [1] = XTT cell viability assay, non-cancerous cardiac fibroblasts (CF); format: cell-based, rat; details: rat
# Source text: Primary non-cancerous rat cardiac fibroblasts (CF);
# (§1) As a routine cancer cell killing assay for assessment of antitumor activity, 2,3-bis(2-methoxy-4-nitro-5-sulfophenyl)-2H-tetrazolium-5-carboxanilide inner salt (XTT) reduction assay was used, utilizing a commercial kit such as, for example, Cell Proliferation XTT Kit, Cat. No. 20-300-1000, Biological Industries Ltd., Kibbutz Beit Haemek, Israel. XTT is a tetrazolium salt which is cleaved to formazan colored compounds by the mitochondrial dehydrogenase enzymes indicating proper mitochondrial activity in intact cells.
# (§2) Thereafter, a series of increasing concentrations of the polymers were added. After another 24 hours of incubation, XTT reaction solution was added (50 μl of XTT per 100 μl of cell culture medium). The optical density of the cells was measured at 450 nm by ELISA plate reader after 2-4 hours XTT incubation. Cell viability was determined relative to a control having no polymer added thereto.
# “Rat primary cardiac fibroblast CF” represents the lethal concentration in μM as measured against CF cell line, measured as described hereinabove in the cell proliferation XTT assay (column 8 in Table 3);
# MCF-7 cell line = format: cell-based
# TRAMP-C2 cell line = format: cell-based
# Source text: Transgenic adenocarcinoma mouse prostate cells (TRAMP-C2);
# as §1, §2
# “Mouse prostate cancer TRAMP-C2” represents the lethal concentration in μM as measured against TRAMP-C2 cell line, measured as described hereinabove in the cell proliferation XTT assay (column 5 in Table 3);
# N-417 cell line = experiment: XTT cell viability assay, N-417 cells; format: cell-based
# Source text: Variant small cell lung cancer cells (N-417, SCLC);
# as §1, §2
# “Human breast cancer MCF-7” represents the lethal concentration in μM as measured against MCF-7 cell line, measured as described hereinabove in the cell proliferation XTT assay (column 6 in Table 3); “Human small-cell lung carcinoma N-417” represents the lethal concentration in μM as measured against N-417 cell line, measured as described hereinabove in the cell proliferation XTT assay (column 7 in Table 3);
# [2] = primary non-cancerous cardiac fibroblasts (CF), 24 hours incubation, XTT, non-cancerous cells, read-out: Cancer LC50 Rat primary cardiac fibroblast CF
# [3] = 24 hours incubation, XTT, read-out: Cancer LC50 Human breast cancer MCF-7
# [4] = 24 hours incubation, XTT, read-out: Cancer LC50 Mouse prostate cancer TRAMP-C2
# [5] = 24 hours incubation, XTT, read-out: Cancer LC50 Human small-cell lung carcinoma N-417
# [6] = Cancer LC50 Rat primary cardiac fibroblast CF
HC50 at 3 h (in vitro; red blood cells) [µM],Structure (SMILES),"CC50 at 24 h [1, 2] [µM]",CC50 (MCF-7 cell line; [3]) [µM],CC50 (TRAMP-C2 cell line; [4]) [µM],CC50 (N-417 cell line; [5]) [µM],other results
> 100,"NCCCC[C@@H]1NC(=O)CCCCCCCCCCCNC(=O)[C@H](CCCCN)NC(=O)[C@H](CCCCN)NC(=O)CCCCCCCCCCCNC1=O [Cyclic-NC12KKNC12K] (HELM PEPTIDE1{[O=C(CCCCCCCCCCCN[*:1])[*:2]].K.[O=C(CCCCCCCCCCCN[*:1])[*:2]].K.K}$PEPTIDE1,PEPTIDE1,1:R1-5:R2$$$V2.0)",,,,,
,NCCCCCCCCCCCC(=O)N[C@@H](CCCCN)C(=O)N[C@@H](CCCCN)C(=O)NCCCCCCCCCCCC(=O)N[C@@H](CCCCN)C(N)=O [NC12KKNC12KNH2] (HELM PEPTIDE1{[NCCCCCCCCCCCC(=O)[*:2]].K.K.[O=C(CCCCCCCCCCCN[*:1])[*:2]].K.[am]}$$$$V2.0),> 16,> 16,> 16,> 16,
,NCCCC[C@@H]1NC(=O)CCCCCCCCCCCNC(=O)[C@H](CCCCN)NC(=O)[C@H](CCCCN)NC(=O)CCCCCCCCCCCNC(=O)[C@H](CCCCN)NC(=O)[C@H](CCCCN)NC(=O)CCCCCCCCCCCNC(=O)[C@H](CCCCN)NC1=O [Cyclic-(KNC12K)3] (cyclo(K[12Ado]KK[12Ado]KK[12Ado]K)),,,,,HC50 at 3 h (in vitro): > 100 µM
,NCCCCCCCCCCCC(=O)N[C@@H](CCCCN)C(=O)N[C@@H](CCCCN)C(=O)NCCCCCCCCCCCC(=O)N[C@@H](CCCCN)C(=O)N[C@@H](CCCCN)C(=O)NCCCCCCCCCCCC(=O)N[C@@H](CCCCN)C(N)=O [NC12K(KNC12K)2NH2] (H-[12Ado]KK[12Ado]KK[12Ado]K-NH2),> 16,> 16,> 16,> 16,
,NCCCC[C@@H]1NC(=O)CCCCCCCCCCCNC(=O)[C@H](CCCCN)NC(=O)CCCCCCCCCCCNC(=O)[C@H](CCCCN)NC(=O)CCCCCCCCCCCNC(=O)[C@H](CCCCN)NC(=O)[C@H](CCCCN)NC(=O)CCCCCCCCCCCNC(=O)[C@H](CCCCN)NC(=O)CCCCCCCCCCCNC1=O [Cyclic-K(NC12K)5] (cyclo(K[12Ado]K[12Ado]K[12Ado]K[12Ado]K[12Ado]K)),,,,,HC50 at 3 h (in vitro): 3.4 ± 0.3 µM
,NCCCCCCCCCCCC(=O)N[C@@H](CCCCN)C(=O)NCCCCCCCCCCCC(=O)N[C@@H](CCCCN)C(=O)N[C@@H](CCCCN)C(=O)NCCCCCCCCCCCC(=O)N[C@@H](CCCCN)C(N)=O [NC12(KNC12K)2NH2] (H-[12Ado]K[12Ado]KK[12Ado]K-NH2),,,,,"CC50 at 24 h [1, 6]: > 16 µM; CC50 (MCF-7 cell line; human, 24 h): > 16 µM; CC50 (TRAMP-C2 cell line; mouse, 24 h): > 16 µM; CC50 (N-417 cell line; human, 24 h): > 16 µM"
,CCCCCCCCCCCC(=O)N[C@@H](CCCCN)C(=O)N[C@@H](CCCCN)C(=O)NCCCCCCCCCCCC(=O)N[C@@H](CCCCN)C(=O)N[C@@H](CCCCN)C(=O)NCCCCCCCCCCCC(=O)N[C@@H](CCCCN)C(N)=O [C12K(KNC12K)2NH2] (Lauroyl-KK[12Ado]KK[12Ado]K-NH2),38 ± 1,12 ± 4,> 16,11 ± 1,
,NCCCC[C@H](NC(=O)CCCCCCCCCCCNC(=O)[C@H](CCCCN)NC(=O)[C@H](CCCCN)NC(=O)CCCCCCCCCCCNC(=O)[C@H](CCCCN)NC(=O)[C@@H](N)CCCCN)C(N)=O [K(KNC12K)2NH2] (HELM PEPTIDE1{K.K.[O=C(CCCCCCCCCCCN[*:1])[*:2]].K.K.[O=C(CCCCCCCCCCCN[*:1])[*:2]].K.[am]}$$$$V2.0),> 16,> 16,> 16,> 16,
10 ± 0.1,CCCCCCCCCCCC(=O)N[C@@H](CCCCN)C(=O)NCCCCCCCCCCCC(=O)N[C@@H](CCCCN)C(=O)N[C@@H](CCCCN)C(=O)NCCCCCCCCCCCC(=O)N[C@@H](CCCCN)C(=O)N[C@@H](CCCCN)C(=O)NCCCCCCCCCCCC(=O)N[C@@H](CCCCN)C(N)=O (Lauroyl-K[12Ado]KK[12Ado]KK[12Ado]K-NH2),> 16,6 ± 1,10,< 16,"CC50 at 24 h ([1]; primary non-cancerous cardiac fibroblasts (CF), dose-dependent plots, FIGS. 4a-b, 6a, read-out: LC50 against non-cancerous CF cells): 38 µM; CC50 (TRAMP-C2 cell line; dose-dependent plot, FIG. 6a, read-out: LC50 towards TRAMP-C2 cells): 11 µM"
,NCCCC[C@H](NC(=O)CCCCCCCCCCCNC(=O)[C@H](CCCCN)NC(=O)[C@@H](N)CCCCN)C(N)=O [KKNC12KNH2] (HELM PEPTIDE1{K.K.[O=C(CCCCCCCCCCCN[*:1])[*:2]].K.[am]}$$$$V2.0),,,,,"CC50 at 24 h [1, 6]: > 16 µM; CC50 (MCF-7 cell line; human, 24 h): > 16 µM; CC50 (TRAMP-C2 cell line; mouse, 24 h): > 16 µM; CC50 (N-417 cell line; human, 24 h): > 16 µM"
,CCCCCCCC(=O)N[C@@H](CCCCN)C(=O)NCCCCCCCCCCCC(=O)N[C@@H](CCCCN)C(=O)N[C@@H](CCCCN)C(=O)NCCCCCCCCCCCC(=O)N[C@@H](CCCCN)C(N)=O [C8(KNC12K)2NH2] (Octanoyl-K[12Ado]KK[12Ado]K-NH2),> 16,> 16,> 8,> 16,
,CCCCCCCC(=O)N[C@@H](CCCCN)C(=O)N[C@@H](CCCCN)C(=O)NCCCCCCCCCCCC(=O)N[C@@H](CCCCN)C(=O)N[C@@H](CCCCN)C(=O)NCCCCCCCCCCCC(=O)N[C@@H](CCCCN)C(N)=O [C8K(KNC12K)2NH2] (Octanoyl-KK[12Ado]KK[12Ado]K-NH2),> 50,20 ± 1,> 16,> 16,
,CCCCCCCCCCCC(=O)N[C@@H](CCCCN)C(=O)N[C@@H](CCCCN)C(=O)NCCCCCCCCCCCC(=O)N[C@@H](CCCCN)C(N)=O [C12KKNC12KNH2] (HELM PEPTIDE1{[CCCCCCCCCCCC(=O)[*:2]].K.K.[O=C(CCCCCCCCCCCN[*:1])[*:2]].K.[am]}$$$$V2.0),,,,,"CC50 at 24 h [1, 6]: > 16 µM; CC50 (MCF-7 cell line; human, 24 h): > 16 µM; CC50 (TRAMP-C2 cell line; mouse, 24 h): > 16 µM; CC50 (N-417 cell line; human, 24 h): > 50 µM"
51 ± 6,CCCCCCCC(=O)N[C@@H](CCCCN)C(=O)NCCCCCCCCCCCC(=O)N[C@@H](CCCCN)C(=O)N[C@@H](CCCCN)C(=O)NCCCCCCCCCCCC(=O)N[C@@H](CCCCN)C(=O)N[C@@H](CCCCN)C(=O)NCCCCCCCCCCCC(=O)N[C@@H](CCCCN)C(N)=O [C8(KNC12K)3NH2] (Octanoyl-K[12Ado]KK[12Ado]KK[12Ado]K-NH2),37 ± 1,8.7 ± 0.5,15 ± 0.7,9 ± 1.4,
> 100,"NCCCC[C@@H]1NC(=O)CCCCCCCCCCCNC(=O)[C@H](CCCCN)NC(=O)[C@H](CCCCN)NC(=O)CCCCCCCCCCCNC(=O)[C@H](CCCCN)NC1=O [Cyclic-(KNC12K)2] (HELM PEPTIDE1{[O=C(CCCCCCCCCCCN[*:1])[*:2]].K.K.[O=C(CCCCCCCCCCCN[*:1])[*:2]].K.K}$PEPTIDE1,PEPTIDE1,1:R1-6:R2$$$V2.0)",,,,,
,NCCCC[C@@H]1NC(=O)CCCCCCCCCCCNC(=O)[C@H](CCCCN)NC(=O)[C@H](CCCCN)NC(=O)CCCCCCCCCCCNC(=O)[C@H](CCCCN)NC(=O)[C@H](CCCCN)NC(=O)CCCCCCCCCCCNC1=O [Cyclic-NC12K(KNC12K)2] (cyclo([12Ado]KK[12Ado]KK[12Ado]K)),,,,,HC50 at 3 h (in vitro): > 100 µM

Structure (SMILES),HC50 at 3 h (in vitro; red blood cells) [µM],"CC50 at 24 h [1, 2] [µM]",CC50 (MCF-7 cell line; [3]) [µM],CC50 (TRAMP-C2 cell line; [4]) [µM],CC50 (N-417 cell line; [5]) [µM],other results
CCCCCCCC(=O)N[C@@H](CCCCN)C(=O)N[C@@H](CCCCN)C(=O)NCCCCCCCCCCCC(=O)N[C@@H](CCCCN)C(=O)N[C@@H](CCCCN)C(=O)NCCCCCCCCCCCC(=O)N[C@@H](CCCCN)C(=O)N[C@@H](CCCCN)C(=O)NCCCCCCCCCCCC(=O)N[C@@H](CCCCN)C(N)=O [C8K(KNC12K)3NH2] (Octanoyl-KK[12Ado]KK[12Ado]KK[12Ado]K-NH2),> 100,25 ± 8,5.7 ± 0.3,16 ± 2,10 ± 0.4,"CC50 at 24 h ([1]; LC50 against non-cancerous CF cells): 25 µM; CC50 (MCF-7 cell line; dose-dependent plots, FIGS. 4a-b, read-out: LC50 against MCF-7 cells): 5.5 µM"
NCCCC[C@H](NC(=O)CCCCCCCCCCCNC(=O)[C@H](CCCCN)NC(=O)[C@H](CCCCN)NC(=O)CCCCCCCCCCCNC(=O)[C@@H](N)CCCCN)C(N)=O [(KNC12K)2NH2] (HELM PEPTIDE1{K.[O=C(CCCCCCCCCCCN[*:1])[*:2]].K.K.[O=C(CCCCCCCCCCCN[*:1])[*:2]].K.[am]}$$$$V2.0),> 100,> 16,> 16,> 16,> 16,
